The source of these data is patent US10106544B2, “1,2-dihydro-3H-pyrrolo[1,2-C]imidazol-3-one derivatives and their use as antibacterial agents” (priority 2014, dated 2018).

Common to all, as to assay: Bacterial growth minimal inhibitory concentration (microdilution, cation-adjusted Mueller-Hinton Broth)
Assay type in all cases: cell-based
A general note: Broth dilution looks for growth in wells or tubes with falling amounts of substance.

One test deals with E. coli ATCC25922. The following applies: for MIC: Escherichia coli. The method in brief:
(§1)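 Broth microdilution in cation-adjusted Mueller-Hinton Broth per CLSI M7-A7, MIC in mg/L. K. pneumoniae A-651 is multiply resistant, including to quinolones. E. coli ATCC25922 and P. aeruginosa ATCC27853 are quinolone-sensitive.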

The next test has as its system K. pneumoniae A-651. Conditions: for MIC: Klebsiella pneumoniae. Summed up:
as §1

The subject of a further test is P. aeruginosa ATCC27853. The following applies: for MIC: Pseudomonas aeruginosa. Summed up: as §1
[1] abbreviates: ATCC25922, quinolone-sensitive strain, read-out: MIC for E. coli ATCC25922.
The mark [2] stands for this setting: A651, multiply-resistant strain (in particular quinolone-resistant), read-out: MIC for K. Pneumoniae A-651.
The mark [3] stands for this setting: ATCC27853, quinolone-sensitive strain, read-out: MIC for P. aeruginosa ATCC27853.

In brackets after ≈: the same amount, converted by molar mass. Where a name gives a salt, the structure may show the parent alone. Read-outs that look alike come from different tables or passages of the source. Bounds are passed on as bounds.

As usually defined, the MIC is the smallest concentration in the dilution series that meets the test's criterion for growth inhibition. `CCOc1ccc(-c2cc3n(c2)C(=O)N(CC[C@](C)(C(=O)NO)S(C)(=O)=O)C3)c(Cl)c1` [Example 49, (R)-4-(6-(2-chloro-4-ethoxyphenyl)-3-oxo-1H-pyrrolo[1,2-c]imidazol-2(3H)-yl)-N-hydroxy-2-methyl-2-(methylsulfonyl)butanamide]: the MIC in the test with E. coli ATCC25922 (setting [1]) was at most 0.063 µg/mL; with K. pneumoniae A-651 (setting [2]), 0.125 µg/mL (≈ 0.266 µM); in the test on P. aeruginosa ATCC27853 (setting [3]), 4 µg/mL (≈ 8.51 µM).
As for `C[C@@](CCN1Cc2cc(C#CC#C[C@@H]3C[C@H]3CO)cn2C1=O)(C(=O)NO)S(C)(=O)=O` [Example 27, (R)-N-hydroxy-4-(6-(((1R,2R)-2-(hydroxymethyl)cyclopropyl)buta-1,3-diyn-1-yl)-3-oxo-1H-pyrrolo[1,2-c]imidazol-2(3H)-yl)-2-methyl-2-(methylsulfonyl)butanamide], the minimal inhibitory concentration (MIC) in the test on E. coli ATCC25922 (setting [1]) is at most 0.063 µg/mL; in the test with K. pneumoniae A-651 (setting [2]) it was 0.25 µg/mL (≈ 0.577 µM); in the test with P. aeruginosa ATCC27853 (setting [3]), 0.5 µg/mL (≈ 1.15 µM).
For `C[C@@](CCN1Cc2cc(C#CC#CC3(CO)CC3)cn2C1=O)(C(=O)NO)S(C)(=O)=O` [Example 15, (R)-N-hydroxy-4-(6-((1-(hydroxymethyl)cyclopropyl)buta-1,3-diyn-1-yl)-3-oxo-1H-pyrrolo[1,2-c]imidazol-2(3H)-yl)-2-methyl-2-(methylsulfonyl)butanamide] the same measures were 0.5 µg/mL (≈ 1.15 µM), 1 µg/mL (≈ 2.31 µM) and 1 µg/mL (≈ 2.31 µM).
As to `COc1ccc(-c2cc3n(c2)C(=O)N(CC[C@](C)(C(=O)NO)S(C)(=O)=O)C3)c(F)c1` [Example 1, (R)-4-(6-(2-fluoro-4-methoxyphenyl)-3-oxo-1H-pyrrolo[1,2-c]imidazol-2(3H)-yl)-N-hydroxy-2-methyl-2-(methylsulfonyl)butanamide], the MIC is 0.125 µg/mL (≈ 0.284 µM) in the test on E. coli ATCC25922 (setting [1]), at most 0.063 µg/mL in the test with K. pneumoniae A-651 (setting [2]) and 1 µg/mL (≈ 2.28 µM) with P. aeruginosa ATCC27853 (setting [3]).
As for `CC(C)(O)c1ccc(C#Cc2cc3n(c2)C(=O)N(CC[C@](C)(C(=O)NO)S(C)(=O)=O)C3)cc1` [Example 10, (R)-N-hydroxy-4-(6-((4-(2-hydroxypropan-2-yl)phenyl)ethynyl)-3-oxo-1H-pyrrolo[1,2-c]imidazol-2(3H)-yl)-2-methyl-2-(methylsulfonyl)butanamide], the MIC came to 0.25 µg/mL (≈ 0.528 µM) in the test on E. coli ATCC25922 (setting [1]), 0.25 µg/mL (≈ 0.528 µM) with K. pneumoniae A-651 (setting [2]) and 0.5 µg/mL (≈ 1.06 µM) in the test on P. aeruginosa ATCC27853 (setting [3]).
With `C[C@@](CCN1Cc2cc(-c3ccc(F)c(F)c3F)cn2C1=O)(C(=O)NO)S(C)(=O)=O` [Example 54, (R)-N-hydroxy-2-methyl-2-(methylsulfonyl)-4-(3-oxo-6-(2,3,4-trifluorophenyl)-1H-pyrrolo[1,2-c]imidazol-2(3H)-yl)butanamide], the MIC with E. coli ATCC25922 (setting [1]) turned out to be 0.125 µg/mL (≈ 0.281 µM); with K. pneumoniae A-651 (setting [2]), 1 µg/mL (≈ 2.25 µM); in the test on P. aeruginosa ATCC27853 (setting [3]), 1 µg/mL (≈ 2.25 µM).
As for `C[C@@](CCN1Cc2cc(C#Cc3ccc(CO)cc3)cn2C1=O)(C(=O)NO)S(C)(=O)=O` [Example 3, (R)-N-hydroxy-4-(6-((4-(hydroxymethyl)phenyl)ethynyl)-3-oxo-1H-pyrrolo[1,2-c]imidazol-2(3H)-yl)-2-methyl-2-(methylsulfonyl)butanamide], the MIC in the test with E. coli ATCC25922 (setting [1]) amounted to 0.125 µg/mL (≈ 0.281 µM); in the test with K. pneumoniae A-651 (setting [2]), 0.5 µg/mL (≈ 1.12 µM); with P. aeruginosa ATCC27853 (setting [3]) it was 2 µg/mL (≈ 4.49 µM).
Turning to `C[C@@](CCN1Cc2cc(C#CC#CC3(N)COC3)cn2C1=O)(C(=O)NO)S(C)(=O)=O` [Example 39, (R)-4-(6-((3-aminooxetan-3-yl)buta-1,3-diyn-1-yl)-3-oxo-1H-pyrrolo[1,2-c]imidazol-2(3H)-yl)-N-hydroxy-2-methyl-2-(methylsulfonyl)butanamide hydrochloride], the MIC in the test on E. coli ATCC25922 (ATCC25922, read-out: MIC for E. coli ATCC25922) is 2 µg/mL; in the test on K. pneumoniae A-651 (A651, read-out: MIC for K. Pneumoniae A-651), 4 µg/mL; with P. aeruginosa ATCC27853 (ATCC27853, read-out: MIC for P. aeruginosa ATCC27853), 4 µg/mL.
For `C[C@@](CCN1Cc2cc(C#CC#C[C@H](O)CO)cn2C1=O)(C(=O)NO)S(C)(=O)=O` [Example 11, (R)-4-(6-((S)-5,6-dihydroxyhexa-1,3-diyn-1-yl)-3-oxo-1H-pyrrolo[1,2-c]imidazol-2(3H)-yl)-N-hydroxy-2-methyl-2-(methylsulfonyl)butanamide], the MIC in the test with E. coli ATCC25922 (setting [1]) is 8 µg/mL (≈ 18.9 µM); in the test with K. pneumoniae A-651 (setting [2]), 16 µg/mL (≈ 37.8 µM); in the test with P. aeruginosa ATCC27853 (setting [3]) it was 8 µg/mL (≈ 18.9 µM).
In the case of `C[C@@](CCN1Cc2cc(-c3ccc(OC[C@H](O)CO)cc3F)cn2C1=O)(C(=O)NO)S(C)(=O)=O` [Example 43, (R)-4-(6-(4-((R)-2,3-dihydroxypropoxy)-2-fluorophenyl)-3-oxo-1H-pyrrolo[1,2-c]imidazol-2(3H)-yl)-N-hydroxy-2-methyl-2-(methylsulfonyl)butanamide], the results for the MIC with E. coli ATCC25922 (setting [1]), in the test with K. pneumoniae A-651 (setting [2]) and with P. aeruginosa ATCC27853 (setting [3]) were 8 µg/mL (≈ 16 µM), 16 µg/mL (≈ 32 µM) and 8 µg/mL (≈ 16 µM), respectively.
Consider `C[C@@](CCN1Cc2cc(C#CC#CC3(COC(N)=O)CC3)cn2C1=O)(C(=O)NO)S(C)(=O)=O` [Example 35, (R)-(1-((2-(4-(hydroxyamino)-3-methyl-3-(methylsulfonyl)-4-oxobutyl)-3-oxo-2,3-dihydro-1H-pyrrolo[1,2-c]imidazol-6-yl)buta-1,3-diyn-1-yl)cyclopropyl)methyl carbamate], for which the MIC came to 0.25 µg/mL (≈ 0.525 µM) with E. coli ATCC25922 (setting [1]), 0.5 µg/mL (≈ 1.05 µM) with K. pneumoniae A-651 (setting [2]) and 2 µg/mL (≈ 4.2 µM) with P. aeruginosa ATCC27853 (setting [3]).
`C[C@@](CCN1Cc2cc(C#Cc3ccc(C4(CO)COC4)cc3)cn2C1=O)(C(=O)NO)S(C)(=O)=O` [Example 70, (R)-N-hydroxy-4-(6-((4-(3-(hydroxymethyl)oxetan-3-yl)phenyl)ethynyl)-3-oxo-1H-pyrrolo[1,2-c]imidazol-2(3H)-yl)-2-methyl-2-(methylsulfonyl)butanamide]: the minimum inhibitory concentration (MIC) in the test with E. coli ATCC25922 (setting [1]) was 1 µg/mL (≈ 1.99 µM); in the test on K. pneumoniae A-651 (setting [2]), 2 µg/mL (≈ 3.99 µM); in the test with P. aeruginosa ATCC27853 (setting [3]) it was 2 µg/mL (≈ 3.99 µM).
For `COc1ccc(-c2cc3n(c2)C(=O)N(CC[C@](C)(C(=O)NO)S(C)(=O)=O)C3)c(F)c1F` [Example 55, (R)-4-(6-(2,3-difluoro-4-methoxyphenyl)-3-oxo-1H-pyrrolo[1,2-c]imidazol-2(3H)-yl)-N-hydroxy-2-methyl-2-(methylsulfonyl)butanamide], the MIC is 0.125 µg/mL (≈ 0.273 µM) with E. coli ATCC25922 (setting [1]), 1 µg/mL (≈ 2.19 µM) in the test with K. pneumoniae A-651 (setting [2]) and 4 µg/mL (≈ 8.74 µM) in the test on P. aeruginosa ATCC27853 (setting [3]).
Take `C[C@@](CCN1Cc2cc(C#Cc3ccc(CNS(C)(=O)=O)cc3)cn2C1=O)(C(=O)NO)S(C)(=O)=O` [Example 82, (R)-N-hydroxy-2-methyl-4-(6-((4-(methylsulfonamidomethyl)phenyl)ethynyl)-3-oxo-1H-pyrrolo[1,2-c]imidazol-2(3H)-yl)-2-(methylsulfonyl)butanamide]: the results for the minimum inhibitory concentration (MIC) in the test on E. coli ATCC25922 (setting [1]), in the test with K. pneumoniae A-651 (setting [2]) and in the test on P. aeruginosa ATCC27853 (setting [3]) were 0.5 µg/mL (≈ 0.957 µM), 1 µg/mL (≈ 1.91 µM) and 1 µg/mL (≈ 1.91 µM), respectively.
As to `C[C@@](CCN1Cc2cc(C#CC#CC3(CO)COC3)cn2C1=O)(C(=O)NO)S(C)(=O)=O` [Example 57], the “MIC for E. coli ATCC25922” value in the test with E. coli ATCC25922 (quinolone-sensitive strain) was 1 µg/mL. Further, in the test on K. pneumoniae A-651 (multiply-resistant strain (in particular quinolone-resistant)), the “MIC for K. Pneumoniae A-651” value was found to be 2 µg/mL. In addition, the “MIC for P. aeruginosa ATCC27853” value in the test with P. aeruginosa ATCC27853 (quinolone-sensitive strain) turned out to be 4 µg/mL.
Consider `CC(C)(CO)c1ccc(C#Cc2cc3n(c2)C(=O)N(CC[C@](C)(C(=O)NO)S(C)(=O)=O)C3)cc1` [Example 9, (R)-N-hydroxy-4-(6-((4-(1-hydroxy-2-methylpropan-2-yl)phenyl)ethynyl)-3-oxo-1H-pyrrolo[1,2-c]imidazol-2(3H)-yl)-2-methyl-2-(methylsulfonyl)butanamide], for which the figures for the MIC in the test with E. coli ATCC25922 (setting [1]), in the test with K. pneumoniae A-651 (setting [2]) and in the test on P. aeruginosa ATCC27853 (setting [3]) were 0.25 µg/mL (≈ 0.513 µM), 0.5 µg/mL (≈ 1.03 µM) and 0.5 µg/mL (≈ 1.03 µM), respectively.
Regarding `C[C@@](CCN1Cc2cc(C#Cc3ccc(C4(O)COC4)cc3)cn2C1=O)(C(=O)NO)S(C)(=O)=O` [Example 2, (R)-N-hydroxy-4-(6-((4-(3-hydroxyoxetan-3-yl)phenyl)ethynyl)-3-oxo-1H-pyrrolo[1,2-c]imidazol-2(3H)-yl)-2-methyl-2-(methylsulfonyl)butanamide], the results for the MIC in the test with E. coli ATCC25922 (setting [1]), with K. pneumoniae A-651 (setting [2]) and with P. aeruginosa ATCC27853 (setting [3]) were 0.5 µg/mL (≈ 1.03 µM), 1 µg/mL (≈ 2.05 µM) and 1 µg/mL (≈ 2.05 µM), respectively.
